Assays:
[1] = test system: human primary hair follicles (melanocyte stem cells at the bulge area); experiment: Pigmentation assay on isolated human primary hair follicles in culture, H2O2 stress; assay type: cell-based; conditions: positive control, 3% H2O2
Text: A novel platform for assaying human primary hair follicles in culture was developed to profile anti-graying potentially active agents (see FIG. 1). Normal human scalp specimens were obtained from various surgeries or from donor and recipient scalp hair derived from plastic surgery. […] Intact human skin specimens were implanted in semi-solid agarose (2% agarose diluted with Williams' medium E (Gibco™) at 1:5 ratio). The hair follicle culture medium was based on Williams' medium E (Gibco™) supplemented with 2 mmol/L L-glutamine, hydrocortisone 10 ng/ml, insulin 10 μg/ml, penicillin 100 U/ml, streptomycin 100 μg/ml, and amphotericin B 25 μg/ml. To maximize the effects of the test formulations and to exclude the variability of delivery ability of the formulations through the epidermis, the test formulations were applied directly at the bulge area of the follicles using the method as follows: (1) tissue preparation and culture for 8-24 hrs. (2) Isolation of individual follicles (3) Vertically embedding in semisolid media (4) Treatment with test formulation/Positive control on the bulge area of the hair follicles (5) Incubation for 24 hrs. (6) 3% H2O2 treatment (7) Incubation for 2 hrs. (8) Repositioning in semisolid media (9) Z-stacking imaging & Analysis on day 1, 3, 7 after H2O2 treatment For the experiment, a total of 602 follicles from 9 different donors were utilized. […]

[2] = test system: ROS in hair follicles; experiment: Reactive Oxygen Species (ROS) assay on individual follicles; assay type: cell-based, human; conditions: NAC pretreatment, ionizing radiation 4, 8 or 12 Gy or 3% H2O2; ROS labeling 2 hours after treatment; compared to IR or H2O2 alone
Procedure: A Reactive Oxygen Species (ROS) assay was used for individual follicle observation with 5-(and-6)-chloromethyl-2′,7′-dichlorodihydrofluorescein diacetate, acetyl ester (CM-H2DCFDA). CM-H2DCFDA is a chloromethyl derivative of […], 2′,7′-dichlorohydrofluorescein diacetate (H2DCFDA), and is useful as an indicator for general ROS in cells. ROS should be labeled after 2 hours and imaged in 20 minutes, and the protocol included dissection of the follicles first before H2O2 treatment. […] The ROS detection protocol was as follows: (1) tissue preparation and culture (2) Isolation of individual follicles (3) Vertically embedding in semisolid media (4) Antioxidant treatment (NAC) on the bulge area of the hair follicles (5) Incubation for […]. (6) Treatment with ionizing radiation (e.g., 8.0 Gray) or H2O2 (7) Incubation for 2 hrs. […] NAC was applied for 24 hours before the ionizing radiation or H2O2 treatment and then 2 hours after treatment, ROS labeling and imaging have been done. The ionizing radiation was administered at doses of 4 gy, 8 Gy, or 12 Gy. Topical administration of hydrogen peroxide was used at a dose of 3%. The ROS positive cells were counted and they were normalized to DAPI positive cells.

[3] = test system: hair follicles; experiment: Pigmented cell counts after NAC treatment (FIG. 12); assay type: cell-based, human; conditions: statistical significance not evaluable
[4] = test system: melanocyte stem cells (MSCs) in the bulge areas of hair follicles of human scalp skin; experiment: Melanocyte stem cell damage and pigmentation assay, topical application on intact human skin specimens; assay type: cell-based; conditions: topical 24 hours, then 3% H2O2 24 hours; eight follicles per treatment
Procedure: Formulation A, placebo A, or the positive control (CPC) were topically applied to the human skin specimens for 24 hours. The specimens were next treated with 3% hydrogen peroxide (H2O2) for 24 hours at 37° C. and incubated in 5% CO2 to trigger the DNA-damage response. After 24 hours of hydrogen peroxide treatment, all portions of the hair follicles were isolated from stress treated human skin scalp. Upon isolation, the hair follicles were washed gently several times in Phosphate-buffered saline (PBS) and transferred intact into soft agar with fresh growth medium in a cell culture incubator at 37° C. and 5% CO2. Hair follicles were examined under bright field microscopy after completion of the hydrogen peroxide treatment daily from day 0 (completion of peroxide treatment) to day 7. Pigmented melanocyte stem cells (MSCs) found in the bulge areas of hair follicles were counted in the bright field view. Formulation A and Placebo A, and the positive control (CPC) were tested, and eight follicles were investigated from each treatment. Paired T-test was applied for data analysis. […] P-value of 0.05 was set as the threshold of statistical significance. […] Eight follicles were analyzed in each test set.

Question: With `CC(=O)N[C@@H](CS)C(=O)O` [NAC, N-acetyl-cysteine] as the compound, how does the “pigmentation prevention at the bulge area of the follicle” value [1] read?
Answer: Its value is “effective on the pigmentation prevention with statistical significance”.

Question: And the “ROS generation (ROS positive cells normalized to DAPI positive cells)” value [2]?
Answer: The value was “decreased compared to IR or H2O2 treatment alone”.

Question: What about the “pigmented cell counts after the NAC treatment” value [3] of the same compound?
Answer: Its value is “tendency showing decreased pigmented cell counts”.

Question: And the hydrogen peroxide-induced pigmentation [4]?
Answer: The hydrogen peroxide-induced pigmentation was “suppressed”.

Source: patent US20190167561A1, “METHODS AND COMPOSITIONS FOR REDUCING THE GRAYING OF HAIR” (Natura Cosmeticos SA, priority 2016, published 2019)
